Results on 12 molecules are retold here after patent US20260055083A1, “APOL1 INHIBITORS AND METHODS OF USE” (Maze Therapeutics, Inc., priority 2022, published 2026).

Molecules are shown by their SMILES.

Assay [1] has as its target T1, APOL1 G2 (Homo sapiens, UniProt O14791, DEL388-389).
T1 construct: expressed in transfected cells; host or cells: HEK293/T-REx APOL1 G2 clone #2, doxycycline-inducible
T1 sequence (O14791 with tags, fused parts or gaps DEL388-389): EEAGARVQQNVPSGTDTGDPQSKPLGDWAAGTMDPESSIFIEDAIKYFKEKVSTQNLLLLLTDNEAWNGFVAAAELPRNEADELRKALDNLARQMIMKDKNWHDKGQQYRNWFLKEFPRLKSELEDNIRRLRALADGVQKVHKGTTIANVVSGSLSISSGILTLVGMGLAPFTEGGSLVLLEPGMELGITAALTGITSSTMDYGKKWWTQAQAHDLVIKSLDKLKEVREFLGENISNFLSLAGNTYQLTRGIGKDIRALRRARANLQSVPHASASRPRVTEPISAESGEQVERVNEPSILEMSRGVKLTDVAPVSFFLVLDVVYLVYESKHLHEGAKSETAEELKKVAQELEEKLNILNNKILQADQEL
Put plainly: APOL1 G2 HEK293 rescue of cell death caused by overexpression of APOL1 (CellTiter-Glo). It is filed as cell-based. Conditions: HEK293/T-REx APOL1 G2 clone #2, doxycycline induction, 17 hours, CellTiter-Glo luminescence; reversal of cell death; geometric mean of at least 2 assay runs. The protocol: A HEK293 clonal cell line overexpressing APOL1 G2 (HEK293/T-REx APOL1 G2/clone #2) was maintained in 1×DMEM-GlutaMax (Gibco, 10569-010) media with 10% tetracycline-free FBS (Takara Bio USA, 631101), 5 μg/mL Blasticidin (Gibco, A1113903), and 100 μg/mL Zeocin (Invitrogen, R25001) in T75 flasks. In preparation for the assay, this media was aspirated and 2 mL of prewarmed TrypLE Express (Gibco, 12605-010) was added to a flask to detach cells. The flask was then incubated (humidified, 37° C. with 5% CO2) for 3-5 minutes. Afterwards, 8 mL of prewarmed cell assay media (1×DMEM-GlutaMax media with 10% tetracycline-free FBS) was added to the trypsinized cells. The suspension was gently mixed, and cells were counted using a Countess Cell Counting Chamber (Invitrogen). The suspension was diluted using cell assay media to generate a working stock solution (166,667 cells/mL). Using a MultiDrop Combi (Thermo Electron Corp), 30 μL (final cell density=5,000 cells/well) of the working stock solution was dispensed into each well of white 384-well assay ready plates (Nunc™, 164610) containing 6 ng/mL doxycycline, to induce APOL1 expression, and compound. All compounds were plated in a duplicate 8-point dilution series that consisted of 3-fold stepwise dilutions (0.5% DMSO final). Assay plates were incubated (humidified, 37° C. with 5% CO2) for 17 hours. After the incubation, the plates were equilibrated at room temperature for 1 hour. Next, 15 μl of CellTiter-Glo® reagent (Promega, G7570) was added to each well using a MultiDrop Combi. Plates were placed on an orbital shaker (500 rpm) for 5 minutes to induce cell lysis and then incubated at room temperature for 10 minutes. Luminescence was measured on an Envision plate reader. Collaborative Drug Discovery software was utilized for graphing data. Plots were generated using a four parameter logistic curve fit.
Table B2 below provides the results from this experiment. Unless otherwise specified, EC50 values are reported as the geometric mean of at least 2 assay runs on separate days. Each run represents the average of a technical replicate, where each compound was assayed twice in the same plate. A superscript t symbol indicates a value from the average of a technical replicate from a single assay run, where each compound was assayed twice in the same plate. Compounds in Table B2 are referred to by the corresponding Compound Number in Table 1, which is also referred to in the synthetic examples. When one or more of the numbered compounds are identified by stereochemistry (for example, (R)- or (S)-), the specific stereoisomer for which data is provided in Table B2 may be identified by the elution order of such compound as described in the synthetic examples. To illustrate, Compound 2 is the first-eluting enantiomer of step 4 of Example 1 and Compound 3 is the second-eluting enantiomer of step 4 of Example 1. Further, by way of illustration, Compound 27 is the first-eluting enantiomeric mixture in step 4 of Example 7 and Compound 28 is the second-eluting enantiomeric mixture in step 4 of Example 7. Then, Compound 27 is separated into Compound 29 (the first-eluting enantiomer) and Compound 30 (the second-eluting enantiomer) in Example 8, and Compound 28 is separated into Compound 31 (the first-eluting enantiomer) and Compound 32 (the second-eluting enantiomer) in Example 8. Absolute stereochemistry of such compounds may be identified by methods known in the art.
Rescue EC50 values reported in Table B2 below represent the half-maximal effective concentration for reversal of cell death caused by overexpression of APOL1.

In assay [2] the target is T1, APOL1 G2. Put plainly: APOL1 G2 FLIPR calcium influx assay (HEK T-REx/GCaMP6f/APOL1 G2 K6.3 cells). The class given is cell-based. Conditions: HEK293 clone expressing GCaMP6f, doxycycline-induced APOL1 G2; prevention of calcium influx; geometric mean of at least 2 assay runs. As for the experimental part:
A HEK293 clonal cell line was generated to stably express GCaMP6f, a genetically encoded calcium indicator, and inducibly express APOL1 G2 (HEK T-REx/GCaMP6f/APOL1 G2 K6.3). Cells were maintained in the following standard complete medium: DMEM with 4.5 g/L glucose and sodium pyruvate (BioWhittaker, Lonza, BE12-614F), supplemented with 10% FBS Performance Plus (Gibco, 16000044), 1% penicillin-streptomycin (BioWhittaker, DE17-602E), 2 mM ultraglutamine-1 (BioWhittaker cat. BE 17-605/U1), 50 μg/mL Zeocin (InvivoGen, ant-zn), 2.5 μg/mL Blasticidin (InvivoGen, ant-bl-5), and 25 μg/mL Hygromycin (InvivoGen, ant-hg). Standard propagation conditions consisted of plating 9×10^6, 4×10^6, 2×10^6 cells in a T225 flasks to be processed after 2, 3, or 4 days, respectively.
A source plate was generated containing 20 serially diluted compounds in DMSO (duplicate 8-point dose response). Next, 0.8 μL of compounds were transferred from the source plate to a destination plate prefilled with 79.2 μL of Ca^2+ free Tyrode's buffer (130 mM NaCl, 5 mM KCl, 1 mM MgCl2, 5 mM NaHCO3, 20 mM HEPES at pH 7.4). The destination plate was placed on a plate shaker (5 seconds at 2000 rpm) to mix. […] All transfer and mixing steps were conducted with an CyBi®-Well dispenser.
Cells were split by gently washing with DPBS (Euroclone, ECB4004L), followed by a 5-minute incubation (humidified, 37° C. with 5% CO2) with trypsin-EDTA solution (Euroclone, ECB3052D). Detached cells were diluted with standard complete medium without selective agents, counted, and plated in a 384 MTP microplate (GR4332CPL, Twin Helix) (10,000 cells/well in 25 μl/well) using a MATRIX WellMate dispenser. Plates were placed into a humidified incubator (37° C. with 5% CO2) overnight. The following day, 20 μL of doxycycline (Sigma, D9891) at 20 ng/mL in standard complete medium was added to cells with a CyBi®Drop dispenser to induce APOL1 G2 expression. After a 6-hour incubation (humidified, 37° C. with 5% CO2), cells were washed 3 times with Ca^2+ free Tyrode's Buffer (130 mM NaCl, 5 mM KCl, 1 mM MgCl2, 5 mM NaHCO3, 20 mM HEPES at pH 7.4) using a BIOTEK Microplate washer, such that 10 μL of buffer remained in each well after the final wash. Assay plates were then stored at room temperature for 10 minutes. Next, 10 μL of diluted compounds were transferred to the assay plate from the 2× compound plate using a CyBi®-Well dispenser. Compound incubation was then carried out at room temperature for 10 minutes. The assay plate was transferred to the […] and 20 μL of 10 mM Ca^2+ (final concentration=5 mM) Tyrode's buffer was injected.
Table B1 below summarizes the data from this experiment. Unless otherwise specified, AC50 and values are reported as the geometric mean of at least 2 assay runs on separate days. Each run represents the average of a technical replicate, where each compound was assayed twice in the same plate. A superscript t symbol indicates a value from the average of a technical replicate from a single assay run, where each compound was assayed twice in the same plate.
The AC50 values in Table B1 below reflect the compound's ability to prevent calcium influx by inhibiting APOL1. […] Compounds in Table B1 are referred to by the corresponding Compound Number in Table 1, which is also referred to in the synthetic examples. When one or more of the numbered compounds are identified by stereochemistry (for example, (R)- or (S)-), the specific stereoisomer for which data is provided in Table B1 may be identified by the elution order of such compound as described in the synthetic examples. To illustrate, Compound 2 is the first-eluting enantiomer of step 4 of Example 1 and Compound 3 is the second-eluting enantiomer of step 4 of Example 1. Further, by way of illustration, Compound 27 is the first-eluting enantiomeric mixture in step 4 of Example 7 and Compound 28 is the second-eluting enantiomeric mixture in step 4 of Example 7. […]

With `C[C@@H]1C[C@H](COc2ccc(S(C)(=O)=O)cc2)CN1C1CCc2c(Cl)cccc2C1` (stereo partly drawn) [Compound 88, (2R,4S)-1-(5-chloro-1,2,3,4-tetrahydronaphthalen-2-yl)-4-[(4-methanesulfonylphenoxy)methyl]-2-methylpyrrolidine], the EC50 on APOL1 G2 [1] turned out to be 215 nM. Moreover, the AC50 on APOL1 G2 [2] amounted to 843 nM.
For `C[C@@H]1C[C@H](COc2ccc(S(=O)(=O)CCCS(C)(=O)=O)cc2)CN1C1CCc2ccc(Cl)cc2C1` (stereo partly drawn) [Compound 52, (2R,4S)-1-[7-chloro-1,2,3,4-tetrahydronaphthalen-2-yl]-4-{[4-(3-methanesulfonylpropanesulfonyl)phenoxy]methyl}-2-methylpyrrolidine], in that order: 86.9 nM and 1020 nM.
For the molecule `C[C@@H]1C[C@H](COc2ccc(S(=O)(=O)CCO)cc2)CN1C1CCc2c(C#N)cc(Cl)cc2C1` (stereo partly drawn) [Compound 55, 3-chloro-6-[(2R,4S)-4-{[4-(2-hydroxyethanesulfonyl)phenoxy]methyl}-2-methylpyrrolidin-1-yl]-5,6,7,8-tetrahydronaphthalene-1-carbonitrile], the EC50 on APOL1 G2 [1] turned out to be 240 nM. The AC50 on APOL1 G2 [2] was determined as 876 nM.
On to `C[C@@H]1CN(CCc2cccc(C#N)c2)C[C@H]1COc1cc(F)c(S(C)(=O)=O)c(F)c1` [Compound 81, 3-{2-[(3S,4S)-3-[(3,5-difluoro-4-methanesulfonylphenoxy)methyl]-4-methylpyrrolidin-1-yl]ethyl}benzonitrile], for which, at APOL1 G2 [1], the EC50 came out at 144 nM.
On to `CN=S(C)(=O)c1ccc(OC[C@H]2C[C@@H](C)N(C3CCc4ccc(C#N)cc4C3)C2)cc1` (single isomer, unassigned) [Compound 37, (7R or 7S)-7-[(2R,4S)-2-methyl-4-({4-[methyl(methylimino)oxo-λ^6-sulfanyl]phenoxy}methyl)pyrrolidin-1-yl]-5,6,7,8-tetrahydronaphthalene-2-carbonitrile], for which, at APOL1 G2 [1], the EC50 is 769 nM.
Regarding `C[C@@H]1C[C@H](COc2ccc(S(=O)(=O)C3CNC3)cc2)CN1C1CCc2ccc(C#N)cc2C1` (single isomer, unassigned) [Compound 27], the EC50 at APOL1 G2 [1] worked out at 145 nM.
For the molecule `COC(=O)CCCS(=O)(=O)c1ccc(OC[C@@H]2CN(CCc3cccc(Cl)c3)C[C@H]2C)cc1` [Compound 79, methyl 4-(4-{[(3S,4S)-1-[2-(3-chlorophenyl)ethyl]-4-methylpyrrolidin-3-yl]methoxy}benzenesulfonyl)butanoate], the EC50 on APOL1 G2 [1] worked out at 334 nM.
For `C[C@@H]1C[C@H](COc2ccc(S(=O)(=O)C3CNC3)cc2)CN1C1CCc2ccc(C#N)cc2C1` (single isomer, unassigned) [Compound 29], the EC50 at APOL1 G2 [1] amounted to 58.4 nM.
`Cc1cc(OC[C@@H]2CN(CCc3cccc(C#N)c3)C[C@H]2C)cnc1S(C)(=O)=O` [Compound 87, 3-{2-[(3S,4S)-3-{[(6-methanesulfonyl-5-methylpyridin-3-yl)oxy]methyl}-4-methylpyrrolidin-1-yl]ethyl}benzonitrile]: the 50% effective concentration (EC50) on APOL1 G2 [1] was found to be 185 nM.
The same measure, in the same setting: as for `C[C@@H]1CN(CC(O)c2cccc(Cl)c2)C[C@H]1COc1ccc(S(C)(=O)=O)cc1` (single isomer, unassigned) [Compound 91, (1R) or (1S)-1-(3-chlorophenyl)-2-[trans-3-[(4-methanesulfonylphenoxy)methyl]-4-methylpyrrolidin-1-yl]ethan-1-ol], the figure is 1610 nM; as for `C[C@H]1CN(CCc2cccc(Cl)c2)C[C@@H]1COc1ccc(S(C)(=O)=O)cc1` [Compound 92, (3R,4R)-1-[2-(3-chlorophenyl)ethyl]-3-[(4-methanesulfonylphenoxy)methyl]-4-methylpyrrolidine], 2070 nM.
With `C[C@@H]1C[C@H](COc2ccc(S(=O)(=O)C3CNC3)cc2)CN1C1CCc2ccc(C#N)cc2C1` (single isomer, unassigned) [Compound 28], the EC50 on APOL1 G2 [1] was 401 nM.
